Experimental data taken from the NIST ThermoML archive (doi:10.1016/j.fluid.2010.10.005).

Assay: xn = mol fraction of the nth substance listed
Conditions: 623.15 K, Liquid, Vibrating tube method

CO [methanol] + O
Conditions	mass density [kg/m3]
20000 kPa, x1 = 0.04	554.98
20000 kPa, x1 = 0.09	499.06
20000 kPa, x1 = 0.15	466.53
20000 kPa, x1 = 0.18	408.88
20000 kPa, x1 = 0.2	310.04
20000 kPa, x1 = 0.25	240.45
20000 kPa, x1 = 0.38	198.52
20000 kPa, x1 = 0.57	192.93
20000 kPa, x1 = 0.59	193.68
20000 kPa, x1 = 0.73	195.58
20000 kPa, x1 = 0.9	203.5
20000 kPa, x1 = 0.95	203.61
25000 kPa, x1 = 0.06	592.54
25000 kPa, x1 = 0.1	564.26
25000 kPa, x1 = 0.19	481.28
25000 kPa, x1 = 0.29	388.57
25000 kPa, x1 = 0.38	335.66
25000 kPa, x1 = 0.55	284.19
25000 kPa, x1 = 0.8	268.34
30000 kPa, x1 = 0.07	599.12
30000 kPa, x1 = 0.09	578.83
30000 kPa, x1 = 0.12	569.12
30000 kPa, x1 = 0.19	536.54
30000 kPa, x1 = 0.47	401.25
30000 kPa, x1 = 0.54	383.13
30000 kPa, x1 = 0.76	350.39
35000 kPa, x1 = 0.09	603.89
35000 kPa, x1 = 0.18	552.55
35000 kPa, x1 = 0.38	476.16
35000 kPa, x1 = 0.48	449.31
35000 kPa, x1 = 0.55	432.87
35000 kPa, x1 = 0.63	422.11
35000 kPa, x1 = 0.77	406.97
35000 kPa, x1 = 0.87	397.04
